Data on two molecules can be found in US11434490B2, “Fluorogen-binding RNA aptamers” (CENTRE NATIONAL DE LA RECHERCHE SCIENTIFIQUE, priority 2017, dated 2022).

Series [1] can be described thus: Fluorescence enhancement of TO3-Biotin. It is filed as biochemical. The note with it: ligand TO3-B; 0.82 μM ligand, 2 μM RNA. Here is the method:
(§1) The bandwidth for all measurements was 1.5 nm for all experiments. Measurements were performed in a 0.2 cm path length cuvette in a background of 20 mM MOPS pH 7.0, 150 mM KCl, 10 μM EDTA. Fluorescence readings were taken in the absence of RNA at a ligand concentration of 0.82 μM. A concentrated, annealed stock of RNA was then added to the cuvette resulting in a final concentration of 2 μM RNA and allowed to equilibrate for 1 minute prior to taking an emission reading. Fluorescence enhancement was determined by dividing the fluorescence signal of ligand in the presence of RNA by the fluorescence signal in the absence of RNA corrected for the background of the instrument.

The nature of series [2]: Fluorescence enhancement of TO1-PE. Type of series: biochemical. Particulars: ligand TO1-PE. Here is the method: as §1
Series [3] can be described thus: Fluorescence titration, binding affinity for TO1-OAc. Particulars: ligand TO1-OAc. The text has this: (§2) We determined the affinity and fluorescence enhancement of four compounds: TO1-OAc (TO1-acetate), TO1-ME (TO1-methylester), TO1-PA (TO1-propanylamide), TO1-PE (TO1-pentenoylester) (FIG. 42, Table 8 & 9). Binding affinity and fluorescence enhancement of TO1-OAc is drastically diminished, and nearly identical between the wild-type and A22U mutant. […] Further extension of the linker stabilizes the binding pocket by stacking on T3 but becomes sterically hindered by a bulky purine in position 22. The A22U mutation would limit steric clashes while preventing misfolding of the G-quadruplex core. Thus, the improved properties of the Mango-II A22U mutant may arise from improved packing of the linker of the fluorophore with an RNA with a homogeneous or predominant conformation.
(§3) Fluorescence readings were recorded using a Varian Cary Eclipse Spectrophotometer set to measure at the maximum excitation and emission wavelengths of the Mango II aptamer dye complex. Fluorescence titrations were performed in Mango selection buffer (WB: 140 mM KCl, 1 mM MgCl2, 10 mM NaH2PO4 pH 7.2, 0.05% Tween-20).

Series [4] in a line: Fluorescence enhancement of TO1-Biotin. It is filed as biochemical. The note with it: ligand TO1-B; 0.82 μM ligand, 2 μM RNA. Here is the method:
as §1

Series [5] is described as follows: Fluorescence titration, binding affinity for TO1-Biotin. Particulars: for Kd: ligand TO1-B (TO1-Biotin).
From the text: (§4) FIG. 2|RNA Mango I, II, III and IV core sequences and their properties. (a) Color coded alignment of RNA Mango I, II, III and IV. G residues in yellow are protected from DMS cleavage (data from panel d) when folded in the presence of fluorophore. Quadruplex stacks and their associated propeller sequences are numbered 1 through 4. The GAAA isolation motif of Mango I, together with two adenines essential for binding, are shown in green and red respectively. Purple shading represents a flanking stem region common for all four Mango aptamers. Schematic: A tertiary structure schematic of Mango I, showing tier 1, 2 and 3 of its quadruplex structure (T1, T2 and T3) and color-coded as in (a). […] Bottom: Top view of the Mango I core (PBD ID: 5V3F), showing the T3 tier of the quadruplex and relevant propeller residues, color coding matches the schematic and panel a. […] KD values are shown next to each titration. (c) Same as for panel b but using 20 nM TO3-Biotin. Data for panels b and c have been normalized such that Mango I has a maximum fluorescence of 1. Error bars are standard deviation of three replicates. (d) DMS chemical protection patterns for the four Mango aptamers. 3′ end-labelled RNA (terminal ^32pCp shown as a black asterisk) was subjected to DMS chemical modification followed by reduction by NaBH4 and aniline cleavage as described in the methods. […] Legend: T1—denatured T1 ladder; OH—partial alkaline hydrolysis ladder; (−) DMS—denatured reaction with ddH2O added in place of DMS; 80° C.
(§5) Fluorescence data was gathered using a Varian Cary Eclipse Spectrophotometer unless otherwise stated. […] Fluorescence was measured at the maximum excitation and emission wavelengths of each complex (FIG. 13).
Where F([RNA]) is the fluorescence as a function of RNA concentration [RNA], Fmax is the maximal fluorescence of the bound complex and Funbound the fluorescence of the unbound fluorophore. When the fluorescence of Funbound was undetectable, it was set to zero.
as §3

The nature of series [6]: Fluorescence enhancement of TO1-ME. Type of series: biochemical. Particulars: ligand TO1-ME. The protocol: as §1
Series [7] in a line: Fluorescence enhancement of TO1-OAc. Particulars: ligand TO1-OAc. Type of series: biochemical. The protocol:
as §1

A short description of series [8]: Fluorescence titration, binding affinity for TO1-PA. The note with it: ligand TO1-PA.
From the text: as §2, §3

Series [9] in a line: Fluorescence titration, binding affinity for TO3-Biotin. Particulars: ligand TO3-B (TO3-Biotin).
From the text: as §4, §5
Or to the following equation for TO3-Biotin and NMM experiments: F([RNA])=Fmax[RNA]/(KD+[RNA])+Funbound (Eq. 2) Fmax was determined using Eq. 1 or Eq. 2 as appropriate. Temperature Dependent Fluorescence and UV Melting Curves
as §3

The nature of series [10]: Fluorescence enhancement of TO1-PA. Type of series: biochemical. Particulars: ligand TO1-PA. Here is the method: as §1
Series [11] in a line: Fluorescence titration, binding affinity for TO1-PE. Particulars: ligand TO1-PE.
From the text: as §2, §3

Series [12] in a line: Fluorescence titration, binding affinity for TO1-ME. Particulars: ligand TO1-ME.
From the text: as §2, §3

Values joined by “and” are separate entries in the source; they are usually repeats but may differ in a detail not shown here. Identical values can stand only once.

Regarding “Mango-II: minimal construct engineered from isolate R2-1; SEQ ID NO: 6902 GCGUACGAAGGAGAGGAGAGGAAGAGGAGAGUACGC (chemistry not given here)”, the “FIE (fluorescence enhancement)” value is 61 ± 2 in series [1]; 783 ± 13 in series [2]; 1303 ± 20 in series [4]; 401 ± 6 in series [6]; 258 ± 10 in series [7]; 493 ± 5 in [10]. Moreover, the Kd (commonly a measure of binding affinity in units of concentration) in series [3] was 56 ± 2 nM; in [5], 1.1 ± 0.3 nM; in [8], 1.04 ± 0.57 nM; in [9] it was 1.4 nM and ~1.4 nM; in series [11] it was 0.37 ± 0.06 nM; in series [12], 2.41 ± 0.54 nM. Besides, the “TO1-Biotin binding affinity (in words)” value in [5] is reported as “subnanomolar affinity”.

B1: Mango II - A22U: Mango-II point mutant; SEQ ID NO: 6903 / 6905 (nucleic acid)
chain 1: GCGUACGAAGGAGAGGAGAGGUAGAGGAGAGUACGC
chain 2: GGCACGUACGAAGGAGAGGAGAGGUAGAGGAGAGUACGUGC
modifications: chemistry not given here
For the molecule B1, the “FIE (fluorescence enhancement)” value is 46 ± 3 in [1]; 825 ± 14 in series [2]; 1543 ± 24 in series [4]; 302 ± 6 in series [6]; 315 ± 4 in [7]; 275 ± 3 in series [10]. For the same molecule, the Kd in series [3] turned out to be 43 ± 3 nM; in series [5], 0.9 ± 0.4 nM; in series [8], 2.21 ± 1.09 nM; in series [9], 5 ± 2.8 nM; in [11] it was 1 ± 0.13 nM; in series [12], 4.81 ± 1.02 nM.
